From publication PMC314469, “Protein Interaction Networks by Proteome Peptide Scanning” (PLoS Biology, 2004)

system: Myo5 SH3 domain; assay: SPOT analysis of cellulose-bound peptides (WISE), Myo5 SH3 domain (Dataset S4); type: binding, Saccharomyces cerevisiae; conditions: SPOT analysis of cellulose-bound 14-mer yeast proteome peptides, Myo5 SH3 domain; normalized value; mean where the peptide was synthesized more than once

Sequence | The normalized value in BLU units [BLU]
NPQSLARPPPPKRI | 247.6
NSGEKIYPQEPPIS | 111.7
PEGVFCIPAPPPNV | 82.5
PEHLFNNPQNPMDF | 157.1
PEPTMGSPDAPPLV | 106.8
PFGTFTLPADPEYK | 171.6
PFIDYEFPHLPNEL | 98.9
PKKSRVLPPLPFPL | 3587.4
PLPTFSAPSLPQQS | 46960.5
PLRERIIPILPANS | 175.1
PLTTLPPPRLPSIQ | 2788.2
PPKLLVYPESPETN | 91.3
PPMAYNRPVYPPPQ | 6717.1
PPPDFNDPTAPLSS | 152.8
PSRSKSNPILPIMR | 522.7
PYMYKYLPRFPNLK | 382.1
QEISLIDPSTPDKA | 155.1
QFQKLVPPTLPENV | 153.9
QFSGLLEPSLPNNM | 84.4
QLRSLFKPFGPILN | 369.9
QLVTLISPYDPNFK | 177.5
QPAQFMPPQDPAAA | 133.5
QPQHLPPPPPPRAQ | 76158.3
RAAGMDVPIIPGIM | 98.2
REASLDIPYKPIIA | 176.1
REDAHEDPVSPKAG | 144.8
RERPLEPPRKPMAS | 967.3
RFHVFCEPILPSVA | 158.0
RFSSRRAPIAPSGK | 564.4
RLFDLVKPKNPKFS | 441.1

same assay, conditions: SPOT analysis of cellulose-bound peptides probed with Myo5 SH3 domain; normalized value

Sequence | The normalized value in BLU units (SPOT analysis, Myo5 SH3) [BLU]
NPGSMSMPGVPTSM | 189.7
NPLYWLLPSHPYTI | 165.0
PAPPPPPPPPPPP | 53285
PEDFLPPPPKPHFA | 125.8
PETRMDLPFSPEVN | 130.3
PEVHHHCPGVPCLV | 331.3
PEVKHFCPSTPIML | 93.7
PEVLMDQPYSPLSD | 78.7
PFSSMKEPFIPQSS | 410.6
PFYTMPDPANPKYS | 145.1
PLAPLPPPPPPSVA | 4747.6
PLFGLSIPKTPTLK | 121.7
PLNQLPNPAMPLLH | 104.2
PPEGFPEPLNPTNF | 86.0
PPLDFEQPRLPSTA | 192.3
PPPPLPPPLFPSSS | 38483.6
PPPPMGQPKDPKFE | 248.1
PPPPPPPPPVPA | 95729
PPQTHQSPPPPPQQ | 222.2
QASMLRRPSLPHID | 1102.4
QELPMEVPKEPAPA | 138.8
QELRFLVPLVPLLV | 119.1
QENPYIIPLPPSST | 240.4
QFSPMDDPKSPTPM | 121.0
QLIGFGNPKNPFAL | 46.1
QPAQLQEPQEPLST | 125.9
QPQAYHLPGNPYST | 187.4
QPTNFQYPPPPFGQ | 224.1
REFEFIIPVFPVIC | 163.2
REVDLPIPAQPGPP | 114.0

same assay, conditions: SPOT analysis of membrane-bound peptides, Myo5 SH3 domain; normalized value (see methods)

Sequence | The normalized value in BLU units [BLU]
NPIPKSVPLHPKSG | 363.8
NQIARQIPFQPWYL | 247.7
NRANKYDPKGPIYN | 205.0
NRKQRSIPLSPIVP | 490.7
NSFRKILPQEPEIW | 235.4
NSFSKNDPNFPILK | 160.5
NSNVRIPPTVPSKI | 423.1
NTIIKFDPGRPIYN | 271.8
NTIIKLFPYIPIPV | 203.7
NTVEKLQPGLPVII | 279.7
NVLLKAKPNDPAAT | 155.5
PCKKKSKPKVPAKN | 579.8
PELAKNSPLAPIKK | 125.2
PESAKCNPNSPRLK | 253.0
PEWRRPHPNIPDAK | 182.7
PHFAKHSPDSPRTS | 236.2
PIGSRYNPNLPVTE | 187.4
PIRLRKRPPPPPPV | 60274.0
PNPLKKAPIPPLAY | 137.2

Sequence | The normalized value in BLU units [BLU]
PPPPRRGPAPPPPP | 15026.4
PPRFKNFPTLPSKI | 634.0
PQQNRPLPQLPNRN | 186.1
PRSKKKKPAPPTLL | 412.9
PSHYRNIPYNPATF | 174.8
PSSHKRKPVIPWDA | 289.2
PTANKYAPVSPTVQ | 191.4
PTVQKFSPHPPTTL | 213.4
PVPVRMQPQPPQPM | 187.8
QELPRAIPVMPFVD | 118.1
QFALKNTPITPGSC | 111.3
QLQEKLSPDLPDEE | 216.1
QSEEKEKPKGPMAV | 197.3
QSINRSIPSAPYGA | 208.2
QSKTKPLPVEPASP | 122.1
RAGNREPPSTPSTL | 273.8
RDDVKRTPFIPESV | 171.1
REGPKSCPRGPLCP | 188.5
RKSDKNAPSVPQVD | 394.6

same assay, conditions: SPOT analysis of membrane-synthesized peptides probed with Myo5 SH3 domain; normalized value

Sequence | The normalized value in BLU units (SPOT analysis, Myo5 SH3) [BLU]
NPFVRINPNRPEAA | 275.9
NPMQKPVPFVPVLD | 420.2
NQIARQIPYQPWYL | 163.5
NSTVRRKPHSPNKK | 955.5
NSVIRGCPGLPDTL | 150.8
NTINKSNPQGPSDN | 76.2
NTLLKVVPQEPTAV | 154.4
NYHHRETPPPPPSN | 317.8
PANPKILPKIPSGA | 164.4
PDLNKRPPREPIEF | 192.4
PFIRRYTPLKPITK | 649.2
PFLIKFTPKFPQSI | 974.5
PGGPKFEPLYPREE | 90.0
PIVKKNVPKPPPLV | 153.6
PKCEKIEPLSPSFK | 116.4
PKHIRNEPVKPFRN | 360.9
PKSPKAYPKLPDIQ | 357.2
PKTGKPLPTQPSSS | 193.3
PPLPRAPPVPPATF | 35914.7
PPNYKQQPNCPSSN | 147.5
PPQMRSNPQQPPQD | 268.2
PPSIRKQPIAPDVL | 150.3

Sequence | The normalized value in BLU units (SPOT analysis, Myo5 SH3) [BLU]
PQTMRQAPKRPDAD | 3257.1
PSAMKLVPSIPPAT | 561.3
PSSKKNKPNPPPGS | 106.9
PVRCRVLPATPRQI | 1474.0
QATGRRGPAPPPPP | 607.2
QGSNKYSPSSPLTT | 171.4
QHKPKVKPSKPEAK | 956.3
QIVNKPLPPLPVAG | 248.9
QLINRFMPHFPSSP | 518.2
QNGLRFNPDVPKLW | 260.1
QPPDRNLPSHPSSN | 155.8
QRLDRDKPHEPNGY | 217.9
QTGSKTVPQAPQAP | 62.9
QTVIKTHPRIPKSE | 186.2
QVYEKTIPLFPPEI | 153.0
QWSKRIMPYIPGPV | 295.5
REYIKSLPMYPAAP | 70.4
RFWTRARPIDPNAY | 279.1
RGWQRFLPTGPIAH | 802.1
RHSKKPAPPPPGMQ | 1938.6
RIRDKSKPSSPTAT | 546.8
RLIKRLKPPAPKEP | 403.1
